Experiments:
M3 muscarinic receptors = target: T1, M3 muscarinic receptors (Homo sapiens, UniProt P20309); assay: Radioligand binding assay, muscarinic M3 receptors; conditions: test compound 1×10^−6 M
T1 construct: expressed in transfected cells; host or cells: CHO cells
Procedure, shortened: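 Radioligand competition binding, detected by scintillation counting; non-specific binding defined with excess unlabelled ligand. Results given as % inhibition of control specific binding; IC50 from Hill-equation fit of competition curves, Ki via Cheng-Prusoff with radioligand KD from Scatchard plot.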

5-HT2C receptor = target: T2, 5-HT2C receptor (Homo sapiens, UniProt P28335); assay: Radioligand binding assay, serotoninergic 5-HT2C receptors; conditions: test compound 1×10^−6 M
T2 construct: expressed in transfected cells; host or cells: HEK-293 cells
T2 sequence (P28335 33-458): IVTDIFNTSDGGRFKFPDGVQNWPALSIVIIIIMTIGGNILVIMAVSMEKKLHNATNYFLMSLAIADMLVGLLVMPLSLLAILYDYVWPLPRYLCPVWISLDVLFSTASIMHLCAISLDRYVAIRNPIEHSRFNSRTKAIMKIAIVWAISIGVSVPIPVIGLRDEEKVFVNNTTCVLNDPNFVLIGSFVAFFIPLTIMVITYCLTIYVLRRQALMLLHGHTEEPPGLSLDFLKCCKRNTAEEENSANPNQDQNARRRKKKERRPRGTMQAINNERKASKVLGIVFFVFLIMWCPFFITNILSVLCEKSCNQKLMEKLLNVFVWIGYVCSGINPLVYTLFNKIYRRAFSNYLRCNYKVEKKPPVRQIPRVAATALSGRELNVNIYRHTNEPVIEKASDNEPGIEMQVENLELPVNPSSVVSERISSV

[1] = target: dopaminergic receptors D3 (Homo sapiens, UniProt P35462); assay: Radioligand binding assay, dopaminergic D3 receptors; conditions: test compound 1×10^−6 M
Sequence of dopaminergic receptors D3 (P35462 whole entry): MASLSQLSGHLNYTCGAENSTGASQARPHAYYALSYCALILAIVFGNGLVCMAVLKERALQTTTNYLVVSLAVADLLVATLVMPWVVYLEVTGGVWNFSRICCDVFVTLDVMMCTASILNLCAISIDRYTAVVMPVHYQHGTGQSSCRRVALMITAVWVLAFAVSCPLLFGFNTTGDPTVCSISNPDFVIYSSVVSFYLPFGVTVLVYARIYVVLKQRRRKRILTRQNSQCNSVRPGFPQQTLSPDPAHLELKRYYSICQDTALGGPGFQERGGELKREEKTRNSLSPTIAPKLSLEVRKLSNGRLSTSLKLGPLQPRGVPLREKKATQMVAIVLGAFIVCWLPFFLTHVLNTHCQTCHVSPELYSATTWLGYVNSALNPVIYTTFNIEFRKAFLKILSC
Procedure, shortened: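 Scintillation read-out. Specific = total − nonspecific (excess cold ligand). Data as % of control specific binding / % inhibition; IC50 by Hill fit; Ki = IC50/(1+L/KD), KD from Scatchard plot.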

[2] = target: T3, 5-HT1A receptor (rat hippocampus) (Rattus norvegicus, UniProt P19327); assay: Radioligand binding assay, serotoninergic 5-HT1A receptors; conditions: binding assay result in %, Table 5a;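 also: test compound at 1 µM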
T3 construct: hippocampus; from tissue; host or cells: rat hippocampus
T3 sequence (P19327 1-422): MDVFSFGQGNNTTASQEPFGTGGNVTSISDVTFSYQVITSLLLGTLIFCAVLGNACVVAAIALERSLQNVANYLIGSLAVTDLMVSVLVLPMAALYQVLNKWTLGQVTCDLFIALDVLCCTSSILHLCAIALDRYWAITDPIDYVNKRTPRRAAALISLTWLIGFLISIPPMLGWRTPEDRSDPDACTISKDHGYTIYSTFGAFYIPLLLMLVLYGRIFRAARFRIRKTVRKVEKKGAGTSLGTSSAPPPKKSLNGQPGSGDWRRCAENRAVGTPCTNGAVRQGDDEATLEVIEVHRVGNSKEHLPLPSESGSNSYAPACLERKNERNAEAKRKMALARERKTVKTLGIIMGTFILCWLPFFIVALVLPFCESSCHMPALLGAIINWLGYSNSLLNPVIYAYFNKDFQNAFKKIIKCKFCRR

5-HT6 receptor = target: T4, 5-HT6 receptor (Homo sapiens, UniProt P50406); assay: Radioligand binding assay, serotoninergic 5-HT6 receptors; conditions: for Ki: read-out: Inhibition constants Ki, 5-HT6;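 as to 5-HT6 [%]: test compound at 1 µM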
T4 construct: purchased PerkinElmer
T4 sequence (P50406 whole entry): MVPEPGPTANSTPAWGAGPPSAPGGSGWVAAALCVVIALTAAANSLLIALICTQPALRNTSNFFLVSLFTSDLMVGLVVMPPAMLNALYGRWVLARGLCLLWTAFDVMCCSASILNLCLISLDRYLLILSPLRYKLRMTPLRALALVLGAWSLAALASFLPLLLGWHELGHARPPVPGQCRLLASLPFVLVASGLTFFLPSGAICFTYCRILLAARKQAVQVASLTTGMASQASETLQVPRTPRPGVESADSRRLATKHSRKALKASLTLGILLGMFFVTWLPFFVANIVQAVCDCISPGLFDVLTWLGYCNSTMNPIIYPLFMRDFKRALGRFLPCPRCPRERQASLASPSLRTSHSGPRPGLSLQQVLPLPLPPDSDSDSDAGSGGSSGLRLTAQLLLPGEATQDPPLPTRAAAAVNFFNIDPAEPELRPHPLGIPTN
Procedure, shortened: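 Values are Ki from Cheng–Prusoff, taking IC50 from Hill nonlinear regression of competition curves and KD from a Scatchard plot. Specific binding was total minus binding with excess unlabelled ligand. Radioligand displacement was detected by scintillation counting, and data were also reported as percent of control specific binding.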

[3] = system: α1 adrenergic receptors (rat cerebral cortex); assay: Radioligand binding assay, adrenergic α1 receptors; conditions: test compound 1×10^−6 M
Procedure, shortened: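 Values derive from radioligand displacement, with non-specific binding defined by excess cold ligand and detection by scintillation. Hill-fit IC50s were converted to Ki via Cheng-Prusoff using Scatchard-derived Kd; percent inhibition of control specific binding also reported.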

[4] = binding assay result in %, Table 5a

T1 sequence (P20309 whole entry): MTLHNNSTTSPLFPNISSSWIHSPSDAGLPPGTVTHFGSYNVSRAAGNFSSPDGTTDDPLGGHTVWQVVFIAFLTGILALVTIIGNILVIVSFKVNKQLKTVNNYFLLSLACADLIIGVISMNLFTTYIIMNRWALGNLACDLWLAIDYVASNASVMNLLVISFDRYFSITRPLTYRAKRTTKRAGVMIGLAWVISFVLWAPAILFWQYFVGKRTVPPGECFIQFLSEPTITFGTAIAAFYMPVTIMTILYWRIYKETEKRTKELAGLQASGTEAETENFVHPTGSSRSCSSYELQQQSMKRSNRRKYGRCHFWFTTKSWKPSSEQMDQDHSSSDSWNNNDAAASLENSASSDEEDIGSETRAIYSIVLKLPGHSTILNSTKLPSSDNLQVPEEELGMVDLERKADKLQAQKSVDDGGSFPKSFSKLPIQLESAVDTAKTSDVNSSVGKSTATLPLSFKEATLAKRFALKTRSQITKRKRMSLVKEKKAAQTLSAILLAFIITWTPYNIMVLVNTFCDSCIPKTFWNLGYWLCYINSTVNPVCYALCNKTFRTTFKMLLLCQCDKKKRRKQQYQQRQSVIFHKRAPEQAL

Row | SMILES | inhibition at 1 µM (M3 muscarinic receptors) [%] | inhibition at 1 µM (5-HT2C receptor) [%] | inhibition at 1 µM [1] [%] | inhibition at 1 µM [2] [%] | inhibition at 1 µM (5-HT6 receptor; [4]) [%] | α1 [%] [3] [%] | Ki (5-HT6 receptor) [nM] | M3 [%] (M3 muscarinic receptors) | 5-HT2C [%] (5-HT2C receptor) | D3 [%] [1] [%] | 5-HT1A [%] [2] [%] | 5-HT6 [%] (5-HT6 receptor; [4])
1 | O=S(=O)(NC1CN(CCOc2cccc3[nH]ccc23)C1)c1ccc(F)cc1 [Compound 46, 4-Fluoro-N-[1-[2-(1H-indol-4-yloxy)ethyl]azetidin-3-yl]benzene-sulphonamide] | -13 | 21 | 104 | 101 | 9 | 85 | – | – | – | – | – | –
2 | O=S(=O)(NC1CN(CCOc2cccc3[nH]ccc23)C1)c1cccc2ccccc12 [Compound 49, N-[1-[2-(1H-Indol-4-yloxy)ethyl]azetidin-3-yl]naphthalene-1-sulphonamide] | 11 | 59 | 106 | 100 | 34 | 89 | – | – | – | – | – | –
3 | COc1cccc(S(=O)(=O)NCC2CN(CCCc3noc4cc(F)ccc34)C2)c1 [Compound 143, N-[[1-[3-(6-Fluoro-1,2-benzoxazol-3-yl)propyl]azetidin-3-yl]methyl]-3-methoxy-benzenesulphonamide] | -4 | 68 | 46 | 44 | 78 | 97 | – | – | – | – | – | –
4 | O=S(=O)(N[C@@H]1CCN(CCCc2noc3cc(F)ccc23)C1)c1ccc2ccccc2c1 [Compound 206, N-[(3R)-1-[3-(6-Fluoro-1,2-benzoxazol-3-yl)propyl]pyrrolidin-3-yl]naphthalene-2-sulphonamide] | 9 | 84 | 95 | 68 | 101 | 93 | 6.1 | – | – | – | – | –
5 | Cc1cccc(S(=O)(=O)NC2CN(CCOc3cccc4[nH]ccc34)C2)c1 [Compound 48, N-[1-[2-(1H-Indol-4-yloxy)ethyl]azetidin-3-yl]-3-methyl-benzenesulphonamide] | 1 | 32 | 104 | 100 | 17 | 87 | – | – | – | – | – | –
6 | O=S(=O)(NC1CN(CCOc2cccc3c2OCCO3)C1)c1cccc(F)c1 [Compound 89, N-[1-[2-(2,3-Dihydro-1,4-benzodioxan-8-yloxy)ethyl]azetidin-3-yl]-3-fluoro-benzenesulphonamide] | – | – | – | – | – | 45 | – | −6 | 53 | 23 | 98 | 19
7 | O=S(=O)(NC1CCN(CCCc2noc3cc(F)ccc23)C1)c1csc2ccccc12 (stereo not shown) [Compound 26, N-[1-[3-(6-Fluoro-1,2-benzoxazol-3-yl)propyl]pyrrolidin-3-yl]-benzothiophene-3-sulphonamide] | 11 | 51 | 81 | 79 | 98 | 87 | – | – | – | – | – | –
8 | O=S(=O)(NC1CCN(CCCc2noc3cc(F)ccc23)C1)c1cc2ccc(F)cc2s1 (stereo not shown) [Compound 234, 6-Fluoro-N-[1-[3-(6-fluoro-1,2-benzoxazol-3-yl)propyl]pyrrolidin-3-yl]benzothiophene-2-sulphonamide] | 17 | 86 | 94 | 45 | 98 | 92 | – | – | – | – | – | –
9 | Cc1ccc2sc(S(=O)(=O)N[C@@H]3CCN(CCCc4noc5cc(F)ccc45)C3)cc2c1 [Compound 228, N-[(3R)-1-[3-(6-Fluoro-1,2-benzoxazol-3-yl)propyl]pyrrolidin-3-yl]-5-methyl-benzothiophene-2-sulphonamide] | 12 | 91 | 97 | 27 | 100 | 88 | 14 | – | – | – | – | –
10 | COc1ccc2cc(S(=O)(=O)N[C@H]3CCN(CCCc4noc5cc(F)ccc45)C3)ccc2c1 [Compound 231, N-[(3S)-1-[3-(6-Fluoro-1,2-benzoxazol-3-yl)propyl]pyrrolidin-3-yl]-6-methoxy-naphthalene-2-sulphonamide] | 22 | 75 | 91 | 34 | 86 | 79 | 79 | – | – | – | – | –
11 | O=S(=O)(NCC1CCN(CCCc2noc3cc(F)ccc23)C1)c1ccc2cc(Cl)ccc2c1 (stereo not shown) [Compound 237, 6-Chloro-N-[[1-[3-(6-fluoro-1,2-benzoxazol-3-yl)propyl]pyrrolidin-3-yl]methyl]naphthalene-2-sulphonamide] | 16 | 79 | 89 | 45 | 87 | 88 | – | – | – | – | – | –
12 | CC(C)(C)c1ccc(S(=O)(=O)NCC2CN(CCOc3cccc4c3OCCO4)C2)cc1 [Compound 181, 4-tert-Butyl-N-[[1-[2-(2,3-dihydro-1,4-benzodioxin-5-yloxy)ethyl]azetidin-3-yl]methyl]benzenesulphonamide] | 0 | 93 | 77 | 98 | 30 | 50 | – | – | – | – | – | –
13 | Cc1cc(S(=O)(=O)NCC2CCN(CCOc3cccc4c3OCCO4)C2)c(C)s1 (stereo not shown) [Compound 312, N-[[1-[2-(2,3-Dihydro-1,4-benzodioxin-5-yloxy)ethyl]pyrrolidin-3-yl]methyl]-2,5-dimethylthiophene-3-sulphonamide] | 10 | 55 | 36 | 98 | 19 | 65 | – | – | – | – | – | –
14 | O=S(=O)(NCC1CCN(CCCc2noc3cc(F)ccc23)C1)c1ccc2ccccc2c1 (stereo not shown) [Compound 240, N-[[1-[3-(6-Fluoro-1,2-benzoxazol-3-yl)propyl]pyrrolidin-3-yl]methyl]-naphthalene-2-sulphonamide] | 21 | 81 | 75 | 30 | 93 | 86 | – | – | – | – | – | –
15 | O=S(=O)(NC1CCN(CCOc2nsc3ccccc23)C1)c1ccc2ccccc2c1 (stereo not shown) [Compound 39, N-[1-[2-(1,2-Benzothiazol-3-yloxy)ethyl]pyrrolidin-3-yl]naphthalene-2-sulphonamide] | 19 | 74 | 95 | 99 | 92 | 29 | – | – | – | – | – | –
16 | COc1ccc2cc(S(=O)(=O)NC3CCN(CCCc4noc5cc(F)ccc45)C3)ccc2c1 (stereo not shown) [Compound 227, N-[1-[3-(6-Fluoro-1,2-benzoxazol-3-yl)propyl]pyrrolidin-3-yl]-6-methoxy-naphthalene-2-sulphonamide] | 13 | 82 | 96 | 62 | 94 | 85 | – | – | – | – | – | –
17 | Cc1c(S(=O)(=O)N[C@@H]2CCN(CCCc3noc4cc(F)ccc34)C2)sc2ccc(F)cc12 [Compound 202, 5-Fluoro-N-[(3R)-1-[3-(6-fluoro-1,2-benzoxazol-3-yl)propyl]pyrrolidin-3-yl]-3-methyl-benzothiophene-2-sulphonamide] | 9 | 88 | 96 | 65 | 100 | 98 | 7.1 | – | – | – | – | –

Source: patent US20140135310A1, “SULPHONAMIDE DERIVATIVES OF ALICYCLIC AMINES FOR THE TREATMENT OF CENTRAL NERVOUS SYSTEM DISEASES” (Adamed Sp. z o.o., priority 2011, published 2014)
